Laboratory results published in patent publication US7767677B2, “Heterocyclic derivatives and their use as stearoyl-CoA desaturase inhibitors” (Xenon Pharmaceuticals Inc., priority 2004, dated 2010).

| SMILES | melting point [°C] |
| --- | --- |
| CCc1nc(-c2ccc(N3CCN(C(=O)c4ccccc4C(F)(F)F)CC3)nn2)no1 [Example 4, {4-[6-(5-ethyl-[1,2,4]oxadiazol-3-yl)pyridazin-3-yl]piperazin-1-yl}-(2-trifluoromethylphenyl)methanone] | 204 |
| CCCCc1nc(-c2ccc(N3CCN(C(=O)c4ccccc4C(F)(F)F)CC3)nn2)no1 [Example 4.1, {4-[6-(5-butyl[1,2,4]oxadiazol-3-yl)pyridazin-3-yl]piperazin-1-yl}-(2-trifluoromethylphenyl)methanone] | 175 |
| CCCc1noc(-c2ccc(N3CCN(C(=O)c4ccccc4C(F)(F)F)CC3)nn2)n1 [Example 7, {4-[6-(3-propyl[1,2,4]oxadiazol-5-yl)pyridazin-3-YL]piperazin-1-yl}-(2-trifluoromethylphenyl)methanone] | 226 |
| CCCCCc1noc(-c2ccc(N3CCN(C(=O)c4ccccc4C(F)(F)F)CC3)nn2)n1 [Example 7.1, {4-[6-(3-pentyl[1,2,4]oxadiazol-5-yl)pyridazin-3-yl]piperazin-1-yl}-(2-trifluoromethylphenyl)methanone] | 164 |
| O=C(c1cc(F)ccc1C(F)(F)F)N1CCN(c2ccc(-c3ncc(-c4ccccc4)o3)nn2)CC1 [Example 12, (5-fluoro-2-trifluoromethylphenyl)-{4-[6-(5-phenyloxazol-2-yl)pyridazin-3-yl]piperazin-1-yl}methanone] | 122 to 125 |
